Assay results as given in patent publication US5545738A, “Alfuzosin hydrochloride dihydrate” (Synthelabo, priority 1993, dated 1996).
Counter-ions that a name gives are not always drawn. Each block holds one compound with its values, some of them ahead of it.

Columns and labels:
α1 -adrenergic receptor = details: cited from earlier work
[1] = Drying Test (moisture content and crystal state under drying conditions); assay type: physicochemical; details: for loss of water: 1 day
Description: The moisture content was measured with Karl Fischer Aquameter (Kyoto Electron Industry, MK-AII) for about 100 mg of a sample dissolved in methanol for moisture measurement. In turn, the dehydration behavior of the crystal water was measured by thermogravimetry and differential thermal analysis using TG/DTA200 thermogravimetric apparatus and SSC5030 Disc Station (Seiko). Concretely, approximately 5 mg of a sample was weighed into an open aluminum pan and analyzed at a rate of temperature increase of 10° C./m or 1° C./m. This analysis was carried out in a nitrogen atmosphere (flow rate: 100 ml/m).
Different from the hygroscopicity test mentioned above, the various hydrates of alfuzosin hydrochloride were kept under drying conditions for the monitoring of the change in moisture content.
In this connection, simultaneously in the present test, also the crystal state of dried samples after a three-days' drying was investigated for the dihydrate of the present invention by X-ray powder diffraction under drying conditions, for comparison with patterns of X-ray powder diffraction under normal conditions.

[2] = Test on Stability to Heating, Humidifying and Light; assay type: physicochemical; details: for stability, overall: conditions of table 1; for moisture content of crystal form: initial, before test
Description: The stability test was carried out following the procedures described below.
A 0.3 g-portion of each of the anhydrous form and respective hydrates of alfuzosin hydrochloride in crystal forms was placed in a glass bottle (sealed) and in a desiccator filled with a NaCl saturated solution, and preserved at 70° C. with a heater (Toyama Industry), after which the physicochemical stability of each compound was evaluated by X-ray powder diffraction and high performance liquid chromatography (HPLC).
Separately, 0.3 g of each of the anhydrous form and respective hydrates of alfuzosin hydrochloride in crystal forms was placed in a plastic dish which was then covered with a polyvinylidene chloride film, followed by irradiation with a chemical lamp (dominant wavelength: 365 nm) for 24 hours, for the evaluation of the light stability in the same manner as in the above.
HPLC apparatus (manufactured by Shimazu)
Detection with UV (at 254 nm); column (Nucleosil 5C18, 150 mm×4 mm, M, Nagel; flow rate 1.0 ml/m; room temperature; eluent, NaClO4 (in 1000 ml of water, 7 g, pH 3.5)- acetonitrile-THF (155:55:45): internal standard, p-chloroacetanilide (0.5 mg/ml).

[3] = Accelerated Test (100 °C and 120 °C, X-ray powder diffraction); assay type: physicochemical; details: for crystal form change: 2 hours
Description: A 0.3 g-portion of each of the hydrates of alfuzosin hydrochloride was preserved in heaters (Sanyo) set to 100° C. and 120° C., for the confirmation of the stability of the respective hydrates. The physical stability of the respective samples was confirmed by X-ray powder diffraction.
In this test, the crystal state of the respective hydrates was monitored by X-ray powder diffraction every 30 minutes for 2 hours.

[4] = as above; assay type: physicochemical; details: 45 min.
[5] = overall stability of crystal forms (tests 1-4); assay type: physicochemical; details: normal preservation (25° C., RH 40-80%) and heating (50°-60° C.); Hydrochloride Dihydrate
[6] = Hygroscopicity Test (25 °C, various relative humidities, 10 days); assay type: physicochemical
Description: A 0.2 g-portion of a sample of each of the anhydrous form and respective hydrates of alfuzosin hydrochloride was placed in a desiccator containing a saturated solution of the salts listed hereunder (at 25° C.), and the relationship between the relative humidity at which the hydrated states of the respective compounds become. stable physically and the hygroscopicity of polymorphic hydrated forms of those compounds was investigated. The respective samples were brought to equilibrium by storage for 10 days under the respective conditions. For the setting up of the relative humidity (RH: %) was used a saturated solution of salts listed below:
RH 0%, dry P2 O5; RH 11%, LiCl; RH 22%, CH3 COOK; RH 33%, MgCl2; RH 43%, K2 CO3.2H2 O; RH 53%, Mg(NO3)2; RH 64%, CoCl2.6H2 O; RH 75%, NaCl; RH 84%, KCl; RH 93%, KNO3; RH 100%, water.

[7] = Chemical lamp (365 nm), 24 hours
[8] = after 70° C., 9 days at RH 75%, hydrochloride
[9] = after 70° C., 9 days, hydrochloride
[10] = after chemical lamp (365 nm), 24 hours, hydrochloride

Compound: COc1cc2nc(N(C)CCCNC(=O)C3CCCO3)nc(N)c2cc1OC (centres unmarked) [alfuzosin hydrochloride]
α1 -adrenergic receptor antagonism (α1 -adrenergic receptor): antagonist of α1 -adrenergic receptor

Compound: COc1cc2nc(N(C)CCCNC(=O)C3CCCO3)nc(N)c2cc1OC (centres unmarked) [Trihydrate (TRI), trihydrate of alfuzosin hydrochloride]
loss of water ([1]; drying conditions): lost most of the water in 1 day | TRI content ([2]; 70° C., 9 days): 68% | TRI content ([2]; 70° C., 9 days at RH 75%): 84% | DI content ([2]; 70° C., 9 days at RH 75%, hydrochloride): 16% | DI content ([2]; 70° C., 9 days, hydrochloride): 37% | stability [2, 7]: Stable | moisture content [2, 8]: 12.03% | moisture content [2, 9]: 11.05% | moisture content [2, 10]: 12.87% | stability, overall ([2]; hydrochloride): changed partially into the dihydrate, so they are considered unstable | moisture content of crystal form ([2]; hydrochloride): 12.75% | crystal form ([3]; 100° C., 30 min., hydrochloride): TRI | crystal form ([3]; 100° C., 60 min., hydrochloride): TRI + DI | crystal form ([3]; 100° C., 90 min., hydrochloride): TRI + DI | crystal form ([3]; 100° C., 120 min., hydrochloride): TRI + DI | crystal form change ([3]; 100° C.): changed into the dihydrate by degrees | crystal form ([4]; hydrochloride): AN + DI + TRI | crystal form change ([4]; hydrochloride): changed into a mixture of the anhydrous form, dihydrate and trihydrate

The next lines start with results.

loss of water ([1]; drying conditions): lost most of the water in 1 day | DI content ([2]; 70° C., 9 days): 26% | TETRA content ([2]; 70° C., 9 days): 74% | DI content ([2]; 70° C., 9 days at RH 75%): 98% | TETRA content ([2]; 70° C., 9 days at RH 75%): 2% | moisture content ([2]; after 70° C., 9 days): 13.19% | moisture content ([2]; after 70° C., 9 days at RH 75%): 8.25% | moisture content ([2]; after chemical lamp (365 nm), 24 hours): 15.18% | moisture content of crystal form [2]: 14.93% | crystal form ([3]; 100° C., 30 min.): TETRA + DI | crystal form change ([3]; 100° C.): changed into the dihydrate by degrees | crystal form change [4]: changed into the dihydrate
Compound: COc1cc2nc(N(C)CCCNC(=O)C3CCCO3)nc(N)c2cc1OC (centres unmarked) [Tetrahydrate (TETRA), alfuzosin hydrochloride tetrahydrate]
stability, overall [2]: changed partially into the dihydrate, so they are considered unstable

dehydration process ([1]; drying conditions): goes very slowly | stability ([2]; 70° C., 9 days): Stable | stability ([2]; 70° C., 9 days at RH 75%): Stable | stability [2, 7]: Stable | moisture content ([2]; after 70° C., 9 days at RH 75%, Hydrochloride Dihydrate): 8.48% | moisture content ([2]; after 70° C., 9 days, Hydrochloride Dihydrate): 8.41% | moisture content ([2]; after chemical lamp (365 nm), 24 hours, Hydrochloride Dihydrate): 8.40% | stability, overall ([2]; Hydrochloride Dihydrate): extremely stable | moisture content of crystal form ([2]; Hydrochloride Dihydrate): 8.14% | time stable ([3]; 100° C.): ≥ 2 h | time stable ([3]; 120° C.): ≥ 0.75 h | relative stability among crystal forms [5]: the stablest crystal form
Compound: COc1cc2nc(N(C)CCCNC(=O)C3CCCO3)nc(N)c2cc1OC (centres unmarked) [Dihydrate (DI), Alfuzosin Hydrochloride Dihydrate]
change in moisture content ([1]; drying conditions, 3 days): no significant change in moisture content | crystal form after drying ([1]; three-days' drying, X-ray powder diffraction): retains its original crystal form, with some drop in degree of crystallization

relative humidity at which stable ([6]; 25° C., 10 days): ≤ 75% | equilibrium moisture content ([6]; RH over 75%, 25° C.): 12% | moisture content change at RH over 75% ([6]; RH over 75%, 25° C.): increased significantly | moisture content, equivalent moles of water ([6]; equilibrium, RH over 75%, 25° C.): 3 moles of water | stability ([2]; 70° C., 9 days): Stable | stability ([2]; 70° C., 9 days at RH 75%): Stable | stability [2, 7]: Stable | moisture content [2, 8]: 0.7% | moisture content [2, 9]: 1.33% | moisture content [2, 10]: 0.66% | stability, overall ([2]; listed as anhydrous form, hydrochloride): extremely stable | moisture content of crystal form ([2]; hydrochloride): 0.1%
Compound: COc1cc2nc(N(C)CCCNC(=O)C3CCCO3)nc(N)c2cc1OC (centres unmarked) [Anhydrous, anhydrous alfuzosin hydrochloride]
crystal form change on preservation ([6]; relative humidity exceeding 75%): the crystal structure of the anhydrous formchanges, thereby providing a trihydrate
